From patent publication US10457710B2, “Antimicrobial peptides, their variants and uses” (priority 2015, dated 2019)

Legend:
Test in all cases: Radial diffusion assay (RDA)
Assay type in all cases: cell-based
Conditions in all cases: Peptides 50 μg, Gentamycin 5 μg; diameter including the wells
[1] = tested on: Staphylococcus aureus (ATCC 25923)
Procedure: (§1) The radial diffusion assay (RDA) was carried out as described by Andersen et al. (2010). Briefly, 30 ml of 1/10 Muller-Hinton broth (MHB) supplemented with 1% agarose and 5.0×10^5 CFU/ml S. aureus or E. coli or K. pneumoniae, P. aeruginosa cells was poured into a single-well omnitray (Nunc) and overlaid with a TSP 96-well plate. […] The peptides were also tested against Fusarium oxysporum and Verticillium dahliae, for which ⅓ potato dextrose agarose was used. To test the synergistic effect of peptides, each peptide was mixed in equimolar concentrations. Mix1 (met1-12), Mix2 (met3, 4 and 5), Mix3 (met 8, 9 and 10), Mix 4 (met11, 12) and Mix5 (8, 9, 10, 11, 12) were prepared and tested against E. coli and S. aureus. Gentamicin and vancomycin were included as positive controls for bacteria and amphotericin B was used as the control for fungi.

[2] = tested on: Klebsiella pneumoniae (ATCC 10031)
Procedure: as §1

[3] = tested on: Pseudomonas aeruginosa (ATCC 27853)
Procedure: as §1

[4] = tested on: Escherichia coli (ATCC 25922)
Procedure: as §1

Substance: Gentamicin [reference compound]
- Inhibition zone, Staphylococcus aureus [1]: 24 mm
- Inhibition zone, Klebsiella pneumoniae [2]: 22 mm
- Inhibition zone, Pseudomonas aeruginosa [3]: 24 mm
- Inhibition zone, Escherichia coli [4]: 22 mm
